Results taken from patent US8835644B2, “Broad spectrum benzothiophene-nitrothiazolide and other antimicrobials” (University of Virginia Patent Foundation, priority 2009, dated 2014).
In brackets after ≈: the same amount, converted by molar mass. Read-outs that look alike come from different tables or passages of the source.

Key:
E. coli biofilm = E. coli biofilm assay (activity tables); format: cell-based, Escherichia coli
How it was run: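 After 24 h static culture at 37 °C in wells containing NTZ, strain 042 (1:100 inoculum) biofilm was quantified by 0.5% crystal violet absorbance at 570 nm. Planktonic growth was taken from turbidity or LB plate counts as cfu/ml; all runs triplicate, reported as mean and SD.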

[1] = test system: aggR and aafA transcripts of EAEC 042; test: qRT-PCR of aggR, aafA and rpoS; format: cell-based, Escherichia coli; conditions: EAEC 042, MinA-G
Experimental: EAEC 042 was grown overnight in MinA-G medium and then diluted to a starting OD600 of 0.05 in three 50 ml MinA-G cultures with 0, 10, and 25 μg/ml NTZ. Bacterial cells were grown with shaking until the cultures reached an OD600 of ˜0.4 and were harvested by centrifugation at 4° C. The pellets were resuspended in 200 μl TE buffer, transferred to polystyrene round bottom 14 ml tubes, and total RNA was extracted by the TES-hot phenol method as previously described (15). The RNA was re-precipitated and washed two times with 500 μl 70% DEPC ethanol to remove any remaining salts. The pellets were dried at 37° C. and suspended in 100 μl DEPC water. RNA concentration was determined with a Nanoprop ND-1000 UV-Vis Spectrophotometer. RNA yields were typically in the 1.6-3.2 μg/μl range. Residual DNA was removed by treatment with TURBO DNase and stored at −80° C. (15).
Primers for real-time qRT-PCR were designed to yield approximately 150 base pair amplicons for the virulence genes aggR and aafA and for the stringent response gene rpoS, which served as an internal control. SuperScript™ II Reverse Transcriptase (Invitrogen) was used to synthesize first-strand cDNA from 1 μg purified RNA with 100 ng random primers (Invitrogen). RNA, random primers, and dNTPs (0.5 mM final concentration) were mixed, heated for 65° C. for 5 min, centrifuged briefly, and quick chilled on ice. […]

[2] = test system: PFOR (pyruvate ferredoxin oxidoreductase); test: Direct PFOR enzyme assay; format: biochemical
S. epidermidis 9142 = test: Catheter adherence model; format: cell-based, Staphylococcus epidermidis; conditions: 24 h, dose dependent, within the IC50 range
Experimental: An overnight culture of S. epidermidis 9142 was used to inoculate fresh TSB medium to a final OD600 of 0.01 in a volume of 3 ml in 15 ml screw capped tubes. Sterile sheets of polyurethane were divided into 1 cm square pieces and placed into tubes containing different concentrations of NTZ or controls containing DMSO. The tubes were incubated for 24 h with shaking. Each catheter portion was washed 3 times with sterile PBS, suspended in 4 ml sterile PBS and sonicated for 10 min in a sonic water bath. 10 μl of the sonicated fluid was diluted in fresh PBS and plated onto TSA plates and incubated at 37° C. overnight. Bacteria were enumerated (triplicate plates) and the mean and standard deviation were determined and reported as CFU/ml. Viability effects were corrected for by plating the supernatants from the 3 ml experiment for total bacterial counts.

Solubility in water = format: physicochemical; conditions: water

SMILES: CC(=O)Oc1ccccc1C(=O)Nc1ncc([N+](=O)[O-])s1 [Nitazoxanide, 2-(acetyloxy)-N-(5-nitro-2-thiazolyl)benzamide, reference compound]
- MIC (E. coli biofilm; Escherichia coli, biofilm, Furan analogues table, read-out: MIC E. coli Biofilm): 26 µM (≈ 7.99 µg/mL)
- MIC (E. coli biofilm; Escherichia coli, read-out: MIC (μM) E. coli Biofilm): 26 µM (≈ 7.99 µg/mL)
- MIC (E. coli biofilm; biofilm, 2-amino-3,5-dinitrothiophene analogues table, read-out: MIC E. coli Biofilm): 26.0 µM (≈ 7.99 µg/mL)
- MIC (E. coli biofilm; biofilm, Thiophene analogues table, read-out: MIC E. coli Biofilm): 26.0 µM (≈ 7.99 µg/mL)
- Increase in aggR transcript levels over untreated controls [1]: ~10 fold
- aafA expression [1]: unaffected
- PFOR inhibition relative to nitazoxanide (=100) [2]: 100%
- PFOR inhibition relative to nitazoxanide (=100) ([2]; * biphasic initial inhibition followed by uninhibited rate, ** caused some precipitant in extract): 100%
- PFOR inhibition relative to nitazoxanide (=100) ([2]; Furan analogues table): 100%
- PFOR inhibition relative to nitazoxanide (=100) ([2]; Thiophene analogues table): 100%
- Attachment to catheter material (S. epidermidis 9142): inhibited attachment
- solubility (Solubility in water): < 32 µg/mL
